{"source": "patent US20160102103A1", "about": "“SUBSTITUTED PYRIDINE COMPOUNDS HAVING HERBICIDAL ACTIVITY” (BASF SE, priority 2013, published 2016)", "assay_type_in_all_cases": "in vivo", "key": {"Capsella bursa-pastoris": {"test_system": "Capsella bursa-pastoris", "assay": "greenhouse post-emergence herbicidal test, CAPBP", "settings": "application rate 0.25 kg/ha, scale from 0 to 100", "description": "(§1) The seeds of the test plants were sown separately for each species. For the post-emergence treatment, the test plants were first grown to a height of 3 to 15 cm, depending on the plant habit, and only then treated with the active ingredients which had been suspended or emulsified in water. For this purpose, the test plants were either sown directly and grown in the same containers, or they were first grown separately as seedlings and transplanted into the test containers a few days prior to treatment. Depending on the species, the plants were kept at 10-25° C. or 20-35° C., respectively. The test period extended over 2 to 4 weeks. During this time, the plants were tended, and their response to the individual treatments was evaluated. Evaluation was carried out using a scale from 0 to 100. 100 means no emergence of the plants, or complete destruction of at least the aerial moieties, and 0 means no damage, or normal course of growth. A good herbicidal activity is given at values of at least 70 and a very good herbicidal activity is given at values of at least 85. The plants used in the greenhouse experiments were of the following species: [table]"}, "Abutilon theophrasti": {"test_system": "Abutilon theophrasti", "assay": "greenhouse post-emergence herbicidal test, ABUTH", "settings": "scale from 0 to 100", "description": "as §1"}, "Polygonum convolvulus": {"test_system": "Polygonum convolvulus", "assay": "greenhouse post-emergence herbicidal test, POLCO", "settings": "application rate 0.125 kg/ha, scale from 0 to 100", "description": "as §1"}, "Setaria viridis": {"test_system": "Setaria viridis", "assay": "greenhouse post-emergence herbicidal test, SETVI", "settings": "scale from 0 to 100", "description": "as §1"}, "Echinocloa crus-galli": {"test_system": "Echinocloa crus-galli", "assay": "greenhouse post-emergence herbicidal test, ECHCG", "settings": "scale from 0 to 100", "description": "as §1"}, "Thlaspi arvense": {"test_system": "Thlaspi arvense", "assay": "greenhouse post-emergence herbicidal test, THLAR", "settings": "application rate 0.25 kg/ha, scale from 0 to 100", "description": "as §1"}, "Amaranthus retroflexus": {"test_system": "Amaranthus retroflexus", "assay": "greenhouse post-emergence herbicidal test, AMARE", "settings": "application rate 0.271 kg/ha, scale from 0 to 100", "description": "as §1"}, "Setaria faberi": {"test_system": "Setaria faberi", "assay": "greenhouse post-emergence herbicidal test, SETFA", "settings": "application rate 0.125 kg/ha, scale from 0 to 100", "description": "as §1"}}, "data": [{"compound": "CC1c2cccnc2C(OC(=O)C(C)(C)C)=C(c2c(Cl)cnc(Cl)c2Cl)S1(=O)=O", "note": "(stereo not shown) [Compound I-7]", "values": [{"measurement": "herbicidal activity against CAPBP", "setting": "Capsella bursa-pastoris", "result": "very good herbicidal activity (a very good herbicidal activity is given at values of at least 85)"}]}, {"compound": "O=S1(=O)Cc2cccnc2C(O)=C1c1c(Cl)cncc1Cl", "note": "[Compound I-1]", "values": [{"measurement": "herbicidal activity against ABUTH", "setting": "Abutilon theophrasti; application rate 0.25 kg/ha", "result": "very good herbicidal activity (a very good herbicidal activity is given at values of at least 85)"}]}, {"compound": "CC1(C)c2cccnc2C(O)=C(c2c(Cl)cnc(Cl)c2F)S1(=O)=O", "note": "[Compound I-39]", "values": [{"measurement": "herbicidal activity against POLCO", "setting": "Polygonum convolvulus", "result": "good herbicidal activity (A good herbicidal activity is given at values of at least 70)"}]}, {"compound": "CC(C)(C)C(=O)OC1=C(c2c(Cl)cnc(Cl)c2Cl)S(=O)(=O)C2(CC2)c2cccnc21", "note": "[Compound I-11]", "values": [{"measurement": "herbicidal activity against SETVI", "setting": "Setaria viridis; application rate 0.50 kg/ha", "result": "very good herbicidal activity (a very good herbicidal activity is given at values of at least 85)"}, {"measurement": "herbicidal activity against ECHCG", "setting": "Echinocloa crus-galli; application rate 0.50 kg/ha", "result": "very good herbicidal activity (a very good herbicidal activity is given at values of at least 85)"}, {"measurement": "herbicidal activity against ABUTH", "setting": "Abutilon theophrasti; application rate 0.50 kg/ha", "result": "very good herbicidal activity (a very good herbicidal activity is given at values of at least 85)"}]}, {"compound": "O=S1(=O)C(c2c(Cl)cnc(Cl)c2Cl)=C(O)c2ncccc2C12CC2", "note": "[Compound I-12]", "values": [{"measurement": "herbicidal activity against THLAR", "setting": "Thlaspi arvense", "result": "very good herbicidal activity (a very good herbicidal activity is given at values of at least 85)"}]}, {"compound": "COc1c(Cl)ncc(Cl)c1C1=C(OC(=O)C(C)(C)C)c2ncccc2C2(CC2)S1(=O)=O", "note": "[Compound I-19]", "values": [{"measurement": "herbicidal activity against AMARE", "setting": "Amaranthus retroflexus", "result": "very good herbicidal activity (a very good herbicidal activity is given at values of at least 85)"}, {"measurement": "herbicidal activity against SETVI", "setting": "Setaria viridis; application rate 0.271 kg/ha", "result": "very good herbicidal activity (a very good herbicidal activity is given at values of at least 85)"}, {"measurement": "herbicidal activity against ABUTH", "setting": "Abutilon theophrasti; application rate 0.271 kg/ha", "result": "very good herbicidal activity (a very good herbicidal activity is given at values of at least 85)"}]}, {"compound": "COc1c(Cl)ncc(Cl)c1C1=C(OC(=O)C(C)(C)C)c2ncccc2CS1(=O)=O", "note": "[Compound I-13]", "values": [{"measurement": "herbicidal activity against SETVI", "setting": "Setaria viridis; application rate 0.25 kg/ha", "result": "good herbicidal activity (A good herbicidal activity is given at values of at least 70)"}]}, {"compound": "CC1(C)c2cccnc2C(O)=C(c2c(F)cnc(Cl)c2Br)S1(=O)=O", "note": "[Compound I-28]", "values": [{"measurement": "herbicidal activity against SETFA", "setting": "Setaria faberi", "result": "very good herbicidal activity (a very good herbicidal activity is given at values of at least 85)"}]}, {"compound": "COc1c(Cl)ncc(Cl)c1C1=C(O)c2ncccc2C(C)(C)S1(=O)=O", "note": "[Compound I-16]", "values": [{"measurement": "herbicidal activity against ABUTH", "setting": "Abutilon theophrasti; application rate 0.125 kg/ha", "result": "very good herbicidal activity (a very good herbicidal activity is given at values of at least 85)"}]}, {"compound": "O=S1(=O)Cc2cccnc2C(O)=C1c1c(F)cnc(Cl)c1Br", "note": "[Compound I-27]", "values": [{"measurement": "herbicidal activity against ECHCG", "setting": "Echinocloa crus-galli; application rate 0.25 kg/ha", "result": "very good herbicidal activity (a very good herbicidal activity is given at values of at least 85)"}]}, {"compound": "O=S1(=O)Cc2cccnc2C(O)=C1c1c(Br)cnc(Cl)c1F", "note": "[Compound I-40]", "values": [{"measurement": "herbicidal activity against ECHCG", "setting": "Echinocloa crus-galli; application rate 0.125 kg/ha", "result": "good herbicidal activity (A good herbicidal activity is given at values of at least 70)"}]}, {"compound": "Cc1c(Cl)ncc(F)c1C1=C(O)c2ncccc2CS1(=O)=O", "note": "[Compound I-36]", "values": [{"measurement": "herbicidal activity against ECHCG", "setting": "Echinocloa crus-galli; application rate 1.0 kg/ha", "result": "good herbicidal activity (A good herbicidal activity is given at values of at least 70)"}]}]}
